Key:
[1] = system: Abutilon theophrasti; test: Greenhouse experiment, post emergence herbicidal activity; assay type: in vivo; conditions: ABUTH
Procedure: (§1) For the post emergence treatment, the plants were first grown to the 2 to 4 leaf stage (GS 12/14). The plants were cultivated due to their individual requirements at 10-25° C. and 20-35° C. The plants were irrigated as required.
(§2) Here, the herbicidal compositions were suspended or emulsified in water as distribution medium and sprayed using finely distributing nozzles. 1% methylated seed oil (MSO) has been added as adjuvant to each of the solo and mixture treatments.
(§3) In the greenhouse experiments, the herbicidal activity for the individual herbicidal compositions (solo and mixture applications) was assessed 20/21 days after treatment (DAT).
(§4) The evaluation for the damage on undesired weeds caused by the chemical compositions was carried out using a scale from 0 to 100%, compared to the untreated control plants. Here, 0 means no damage and 100 means complete destruction of the plants.

[2] = system: Ambrosia artemisiifolia; test: as above; assay type: in vivo; conditions: AMBEL
Procedure: as §1, §2, §3, §4

[3] = system: Chenopodium album; test: as above; assay type: in vivo; conditions: CHEAL
Procedure: as §1, §2, §3, §4

[4] = system: Convolvulus arvensis; test: as above; assay type: in vivo; conditions: CONAR
Procedure: as §1, §2, §3, §4

[5] = system: Mercuralis annua; test: as above; assay type: in vivo; conditions: MERAN
Procedure: as §1, §2, §3, §4

[6] = system: Papaver rhoeas; test: as above; assay type: in vivo; conditions: PAPRH
Procedure: as §1, §2, §3, §4

[7] = system: Polygonum aviculare; test: as above; assay type: in vivo; conditions: POLAV
Procedure: as §1, §2, §3, §4

[8] = system: Portulaca oleracea; test: as above; assay type: in vivo; conditions: POROL, BBCH 12-14, Flumioxazin 4, Bifenox 168 g ai/ha
Procedure: as §1, §2, §3, §4

[9] = system: Sonchus arvensis; test: as above; assay type: in vivo; conditions: SONAR
Procedure: as §1, §2, §3, §4

[10] = system: Sorghum halepense; test: as above; assay type: in vivo; conditions: SORHA, BBCH 12-14, Saflufenacil 4, Bifenox 168 g ai/ha
Procedure: as §1, §2, §3, §4

[11] = system: HELAN Pacino; test: Greenhouse experiment, crop safety of sunflower; assay type: in vivo, Helianthus annuus; conditions: scale 0 to 100%
Procedure: as §1, §2, §3, §4

[12] = system: HELAN w F(383)I; test: Greenhouse experiment, crop safety of PPO inhibitor tolerant sunflower; assay type: in vivo, Helianthus annuus; conditions: scale 0 to 100%
Procedure: as §1, §2, §3, §4

[13] = system: Hibiscus trionum; test: Greenhouse experiment, post emergence herbicidal activity; assay type: in vivo; conditions: HIBTR
Procedure: as §1, §2, §3, §4

[14] = system: Matricaria chamomilla; test: as above; assay type: in vivo; conditions: MATCH
Procedure: as §1, §2, §3, §4

[15] = system: Echinochloa crus-galli; test: as above; assay type: in vivo; conditions: ECHCG
Procedure: as §1, §2, §3, §4

[16] = system: Solanum nigrum; test: as above; assay type: in vivo; conditions: SOLNI, BBCH 12-14, Flumioxazin 1, Fomesafen 123 g ai/ha
Procedure: as §1, §2, §3, §4

[17] = system: Setaria viridis; test: as above; assay type: in vivo; conditions: SETVI
Procedure: as §1, §2, §3, §4

[18] = system: Amaranthus retroflexus; test: Field experiment, post-emergence herbicidal activity; assay type: in vivo; conditions: AMARE, postemergence
Procedure: (§5) Trial Objective: Saflufenacil in tank mix with Pendimethalin efficacy on weeds and grasses in early post-emergence of the weeds
(§6) On field test sites, natural weed infestation was treated, pre-emergence of the weeds on bare soil or post-emergence of the weeds.
(§7) For the post emergence treatment, the weedy plants were treated between the 2-4 true leaf stage (GS12-14) and the 6 true leaf stage (GS 16). The herbicidal compositions were suspended or emulsified in water as distribution medium and sprayed with commercial flat fan nozzles using between 100 and 200 l/ha water.
as §4, with “In the following experiments, the herbicidal activity for the individual herbicidal compositions (solo and mixture applications) was assessed up to 36 days after treatment (DAT). The” for “The”, “assessments” for “evaluation”
(§8) [formula] • where X=effect in percent using herbicide (A) at an application rate a; • Y=effect in percent using herbicide (B) at an application rate b; • E=expected effect (in %) of herbicide (A)+herbicide (B) at application rates a+b.
(§9) The value E corresponds to the effect (plant damage or injury) which is to be expected if the activity of the individual compounds is additive. If the observed effect is higher than the value E calculated according to the Colby equation, a synergistic effect is present.

[19] = system: Echinochloa crus-galli; test: as above; assay type: in vivo; conditions: ECHCG, postemergence
Procedure: as §5, §6, §7
as §4, with “In the following experiments, the herbicidal activity for the individual herbicidal compositions (solo and mixture applications) was assessed up to 36 days after treatment (DAT). The” for “The”, “assessments” for “evaluation”
as §8, §9

[20] = system: Mercuralis annua; test: as above; assay type: in vivo; conditions: MERAN, postemergence, Saflufenacil 12.5, Pendimethalin 1365 g ai/ha
Procedure: as §5, §6, §7
as §4, with “In the following experiments, the herbicidal activity for the individual herbicidal compositions (solo and mixture applications) was assessed up to 36 days after treatment (DAT). The” for “The”, “assessments” for “evaluation”
as §8, §9

[21] = system: Erigeron canadensis; test: Greenhouse experiment, post emergence herbicidal activity; assay type: in vivo; conditions: ERICA, BBCH 12-14, Flumioxazin 1, Pyraflufen-ethyl 1.5 g ai/ha
Procedure: as §1, §2, §3, §4

[22] = system: Eleusine indica; test: Field experiment, pre-emergence herbicidal activity on bare ground; assay type: in vivo; conditions: ELEIN, preemergence, Saflufenacil 25, Sulfentrazone 210 g ai/ha
Procedure: (§10) Trial Objective: Efficacy of Saflufenacil in tank mix with Flumioxazin applied in pre-emergence of the weeds on bare ground.
(§11) Trial Objective: Efficacy of Saflufenacil in tank mix with Sulfentrazone applied in pre-emergence of the weeds on bare ground.
as §6
(§12) For the pre-emergence treatment, the active compounds, suspended or emulsified in water, were applied by means of finely distributing nozzles on bare ground.
as §4, with “In the following experiments, the herbicidal activity for the individual herbicidal compositions (solo and mixture applications) was assessed up to 36 days after treatment (DAT). The” for “The”, “assessments” for “evaluation”
as §8, §9

[23] = system: Urochloa texana; test: as above; assay type: in vivo; conditions: PANTE, preemergence, Saflufenacil 25, Sulfentrazone 210 g ai/ha
Procedure: as §10, §11, §6, §12
as §4, with “In the following experiments, the herbicidal activity for the individual herbicidal compositions (solo and mixture applications) was assessed up to 36 days after treatment (DAT). The” for “The”, “assessments” for “evaluation”
as §8, §9

[24] = BBCH 12-14, Saflufenacil 1, Bifenox 168 g ai/ha
[25] = BBCH 12-14, Saflufenacil 0.5, Bifenox 168 g ai/ha
[26] = BBCH 12-14, Flumioxazin 0.5, Bifenox 168 g ai/ha
[27] = BBCH 12-14, Saflufenacil 0.5, Clethodim 30 g ai/ha
[28] = BBCH 12-14, Flumioxazin 2, Fomesafen 123 g ai/ha
[29] = BBCH 12-14, Flumioxazin 0.5, Halauxifen 1 g ai/ha
[30] = BBCH 12-14, Flumioxazin 2, Halauxifen 1 g ai/ha
[31] = BBCH 12-14, Saflufenacil 1, Imazamox 10 g ai/ha
[32] = BBCH 12-14, Flumioxazin 0.5, Imazamox 10 g ai/ha
[33] = Saflufenacil 12.5, Pendimethalin 1064 g ai/ha
[34] = BBCH 12-14, Flumioxazin 0.5, Pyraflufen-ethyl 1.5 g ai/ha
[35] = BBCH 12-14, Flumioxazin 2, Tribenuron-methyl 6 g ai/ha

COC(=O)c1cc(Oc2ccc(Cl)cc2Cl)ccc1[N+](=O)[O-] [Bifenox, Methyl 5-(2,4-dichlorophenoxy)-2-nitrobenzoate]
% Herbicidal activity ([1]; BBCH 12-14, Flumioxazin 2, Bifenox 168 g ai/ha): 55% | % Herbicidal activity [1, 24]: 80% | % Herbicidal activity [2, 24]: 60% | % Herbicidal activity ([3]; BBCH 12-14, Flumioxazin 1, Bifenox 168 g ai/ha): 20% | % Herbicidal activity [4, 24]: 75% | % Herbicidal activity [5, 25]: 55% | % Herbicidal activity [6, 26]: 10% | % Herbicidal activity [6, 25]: 5% | % Herbicidal activity ([7]; BBCH 12-14, Flumioxazin 4, Bifenox 168 g ai/ha): 20% | % Herbicidal activity [8]: 10% | % Herbicidal activity [9, 26]: 30% | % Herbicidal activity [10]: 10% | Observed crop damage 21 days after treatment [11, 26]: 15% | Observed crop damage 21 days after treatment [12, 26]: 5%

CCSC(C)CC1CC(=O)C(/C(CC)=N/OC/C=C/Cl)=C(O)C1 (centres unmarked) [Clethodim]
% Herbicidal activity ([2]; BBCH 12-14, Saflufenacil 1, Clethodim 30 g ai/ha): 10% | % Herbicidal activity ([3]; BBCH 12-14, Saflufenacil 4, Clethodim 30 g ai/ha): 0% | % Herbicidal activity [4, 27]: 0% | % Herbicidal activity [13, 27]: 10% | % Herbicidal activity [14, 27]: 0% | % Herbicidal activity [7, 27]: 0% | % Herbicidal activity [9, 27]: 5%

CS(=O)(=O)NC(=O)c1cc(Oc2ccc(C(F)(F)F)cc2Cl)ccc1[N+](=O)[O-] [Fomesafen, 5-[2-Chloro-4-(trifluoromethyl)phenoxy]-N-(methanesulfonyl)-2-nitrobenzamide]
% Herbicidal activity ([1]; BBCH 12-14, Saflufenacil 2, Fomesafen 1 g ai/ha): 94% | % Herbicidal activity [3, 28]: 80% | % Herbicidal activity ([4]; BBCH 12-14, Flumioxazin 0.5, Fomesafen 123 g ai/ha): 70% | % Herbicidal activity [15, 28]: 85% | % Herbicidal activity ([15]; BBCH 12-14, Saflufenacil 4, Fomesafen 123 g ai/ha): 95% | % Herbicidal activity ([14]; BBCH 12-14, Flumioxazin 1, Fomesafen 123 g ai/ha): 85% | % Herbicidal activity [16]: 90%

COc1c(Cl)ccc(-c2cc(N)c(Cl)c(C(=O)O)n2)c1F [Halauxifen]
% Herbicidal activity [4, 29]: 60% | % Herbicidal activity ([4]; BBCH 12-14, Saflufenacil 0.5, Halauxifen 1 g ai/ha): 70% | % Herbicidal activity [14, 30]: 5% | % Herbicidal activity ([14]; BBCH 12-14, Saflufenacil 2, Halauxifen 1 g ai/ha): 65% | % Herbicidal activity [6, 29]: 95% | % Herbicidal activity [17, 29]: 70% | % Herbicidal activity [9, 30]: 65% | Observed crop damage 21 days after treatment [11, 29]: 5% | Observed crop damage 21 days after treatment [12, 29]: 15%

COCc1cnc(C2=NC(C)(C(C)C)C(=O)N2)c(C(=O)O)c1 (centres unmarked) [Imazamox, 5-(methoxymethyl)-2-(4-methyl-5-oxo-4-propan-2-yl-1H-imidazol-2-yl)pyridine-3-carboxylic acid]
% Herbicidal activity ([1]; BBCH 12-14, Flumioxazin 1, Imazamox 10 g ai/ha): 84% | % Herbicidal activity ([2]; BBCH 12-14, Flumioxazin 4, Imazamox 10 g ai/ha): 85% | % Herbicidal activity [2, 31]: 75% | % Herbicidal activity [13, 32]: 65% | % Herbicidal activity [14, 31]: 35% | % Herbicidal activity [5, 32]: 30% | % Herbicidal activity ([17]; BBCH 12-14, Saflufenacil 0.5, Imazamox 10 g ai/ha): 75%

CCC(CC)Nc1c([N+](=O)[O-])cc(C)c(C)c1[N+](=O)[O-] [Pendimethalin]
% Herbicidal activity ([18]; Saflufenacil 12.5, Pendimethalin 840 g ai/ha): 37% | % Herbicidal activity [18, 33]: 80% | % Herbicidal activity [19, 33]: 80% | % Herbicidal activity ([19]; Saflufenacil 12.5, Pendimethalin 1365 g ai/ha): 36% | % Herbicidal activity ([19]; Saflufenacil 50, Pendimethalin 1064 g ai/ha): 80% | % Herbicidal activity [20]: 42%

CCOC(=O)COc1cc(-c2nn(C)c(OC(F)F)c2Cl)c(F)cc1Cl [Pyraflufen-ethyl, ethyl 2-[2-chloro-5-[4-chloro-5-(difluoromethoxy)-1-methylpyrazol-3-yl]-4-fluorophenoxy]acetate]
% Herbicidal activity ([4]; BBCH12-14, Flumioxazin 0.5, Pyraflufen-ethyl 1.5 g ai/ha): 70% | % Herbicidal activity [21]: 80% | % Herbicidal activity [7, 34]: 90% | % Herbicidal activity [9, 34]: 98%

Cc1nn(-c2cc(NS(C)(=O)=O)c(Cl)cc2Cl)c(=O)n1C(F)F [Sulfentrazone, N-{2,4-Dichloro-5-[4-(difluoromethyl)-3-methyl-5-oxo-4,5-dihydro-1H-1,2,4-triazol-1-yl]phenyl}methanesulfonamide]
% Herbicidal activity [22]: 80% | % Herbicidal activity [23]: 45%

COC(=O)c1ccccc1S(=O)(=O)NC(=O)N(C)c1nc(C)nc(OC)n1 [Tribenuron-methyl, Methyl 2-[[(4-methoxy-6-methyl-1,3,5-triazin-2-yl)-methylcarbamoyl]sulfamoyl]benzoate]
% Herbicidal activity ([2]; BBCH 12-14, Saflufenacil 1, Tribenuron-methyl 6 g ai/ha): 90% | % Herbicidal activity [6, 35]: 95% | % Herbicidal activity [17, 35]: 25%
